In brackets after ≈: the same amount, converted by molar mass.
Experiments:
[1] = molecular target: T1, Carnitine O-palmitoyltransferase 1, muscle isoform (Homo sapiens, UniProt Q92523); assay: SUPPLEMENTARY: Inhibition of Carnitine palmitoyltransferase 1, muscle isoform; design: species or system Muscle tissue
T1 sequence (Q92523 whole entry): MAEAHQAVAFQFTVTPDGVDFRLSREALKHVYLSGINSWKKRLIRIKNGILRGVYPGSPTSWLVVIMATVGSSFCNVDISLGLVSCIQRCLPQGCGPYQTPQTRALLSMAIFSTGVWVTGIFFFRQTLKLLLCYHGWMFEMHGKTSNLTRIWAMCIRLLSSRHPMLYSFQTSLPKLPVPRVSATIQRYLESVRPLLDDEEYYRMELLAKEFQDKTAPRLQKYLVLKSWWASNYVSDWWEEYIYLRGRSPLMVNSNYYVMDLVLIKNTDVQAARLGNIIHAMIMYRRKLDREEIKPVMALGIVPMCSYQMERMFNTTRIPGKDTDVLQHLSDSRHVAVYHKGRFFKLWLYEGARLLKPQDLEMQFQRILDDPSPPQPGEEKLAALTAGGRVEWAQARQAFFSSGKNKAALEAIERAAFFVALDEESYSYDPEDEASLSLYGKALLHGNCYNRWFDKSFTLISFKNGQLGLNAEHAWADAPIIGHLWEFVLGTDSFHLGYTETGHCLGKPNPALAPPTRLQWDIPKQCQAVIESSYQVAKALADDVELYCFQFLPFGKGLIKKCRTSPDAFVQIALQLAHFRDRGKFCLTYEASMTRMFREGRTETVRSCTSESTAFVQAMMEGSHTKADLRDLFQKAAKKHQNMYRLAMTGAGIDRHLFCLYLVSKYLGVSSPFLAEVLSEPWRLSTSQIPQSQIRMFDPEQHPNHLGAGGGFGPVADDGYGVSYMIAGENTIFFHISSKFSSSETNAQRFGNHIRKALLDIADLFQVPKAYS

[2] = molecular target: T2, Carnitine O-palmitoyltransferase 2, mitochondrial (Homo sapiens, UniProt P23786); assay: (§1) SUPPLEMENTARY: Inhibition of Carnitine palmitoyltransferase 2
T2 sequence (P23786 whole entry): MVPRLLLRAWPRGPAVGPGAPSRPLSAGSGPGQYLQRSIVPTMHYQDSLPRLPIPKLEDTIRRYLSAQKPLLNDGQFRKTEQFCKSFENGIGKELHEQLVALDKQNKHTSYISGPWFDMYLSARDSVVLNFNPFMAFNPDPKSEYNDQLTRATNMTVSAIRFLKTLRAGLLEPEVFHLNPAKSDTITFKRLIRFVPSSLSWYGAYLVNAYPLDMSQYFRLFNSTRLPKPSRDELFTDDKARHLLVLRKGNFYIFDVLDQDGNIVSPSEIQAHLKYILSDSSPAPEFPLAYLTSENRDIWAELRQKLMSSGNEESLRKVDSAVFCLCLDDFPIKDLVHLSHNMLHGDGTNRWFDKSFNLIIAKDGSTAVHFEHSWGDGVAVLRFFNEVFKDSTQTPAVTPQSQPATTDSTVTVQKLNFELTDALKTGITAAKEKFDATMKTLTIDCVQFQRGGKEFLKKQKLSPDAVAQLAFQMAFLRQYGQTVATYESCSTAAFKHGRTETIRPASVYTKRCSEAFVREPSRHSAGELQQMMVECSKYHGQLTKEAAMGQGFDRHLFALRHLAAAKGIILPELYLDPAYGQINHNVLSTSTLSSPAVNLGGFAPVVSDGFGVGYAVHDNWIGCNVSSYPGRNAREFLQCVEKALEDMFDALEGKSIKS

[3] = molecular target: T3, Carnitine O-palmitoyltransferase 2, mitochondrial (Rattus norvegicus, UniProt P18886); assay: as §1
T3 sequence (P18886 whole entry): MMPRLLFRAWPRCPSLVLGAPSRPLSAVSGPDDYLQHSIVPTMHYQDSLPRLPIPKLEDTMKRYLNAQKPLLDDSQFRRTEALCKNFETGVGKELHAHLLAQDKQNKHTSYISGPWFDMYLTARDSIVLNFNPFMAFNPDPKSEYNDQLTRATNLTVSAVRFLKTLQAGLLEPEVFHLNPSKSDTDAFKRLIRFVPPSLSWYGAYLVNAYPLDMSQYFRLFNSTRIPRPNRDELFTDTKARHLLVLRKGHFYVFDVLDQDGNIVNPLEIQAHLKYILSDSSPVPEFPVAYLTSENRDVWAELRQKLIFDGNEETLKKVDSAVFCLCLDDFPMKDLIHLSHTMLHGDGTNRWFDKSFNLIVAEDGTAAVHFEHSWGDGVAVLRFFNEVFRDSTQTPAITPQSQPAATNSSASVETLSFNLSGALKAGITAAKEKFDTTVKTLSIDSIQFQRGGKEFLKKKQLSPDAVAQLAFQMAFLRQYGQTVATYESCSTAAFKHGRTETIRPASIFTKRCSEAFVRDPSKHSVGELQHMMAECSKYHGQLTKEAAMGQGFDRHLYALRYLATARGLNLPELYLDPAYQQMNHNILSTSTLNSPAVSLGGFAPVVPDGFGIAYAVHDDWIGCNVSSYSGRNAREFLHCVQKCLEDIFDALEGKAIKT

[4] = molecular target: T4, Carnitine O-palmitoyltransferase 1, liver isoform (Homo sapiens, UniProt P50416); assay: (§2) SUPPLEMENTARY: Inhibition of Carnitine palmitoyltransferase 1, liver isoform
T4 sequence (P50416 whole entry): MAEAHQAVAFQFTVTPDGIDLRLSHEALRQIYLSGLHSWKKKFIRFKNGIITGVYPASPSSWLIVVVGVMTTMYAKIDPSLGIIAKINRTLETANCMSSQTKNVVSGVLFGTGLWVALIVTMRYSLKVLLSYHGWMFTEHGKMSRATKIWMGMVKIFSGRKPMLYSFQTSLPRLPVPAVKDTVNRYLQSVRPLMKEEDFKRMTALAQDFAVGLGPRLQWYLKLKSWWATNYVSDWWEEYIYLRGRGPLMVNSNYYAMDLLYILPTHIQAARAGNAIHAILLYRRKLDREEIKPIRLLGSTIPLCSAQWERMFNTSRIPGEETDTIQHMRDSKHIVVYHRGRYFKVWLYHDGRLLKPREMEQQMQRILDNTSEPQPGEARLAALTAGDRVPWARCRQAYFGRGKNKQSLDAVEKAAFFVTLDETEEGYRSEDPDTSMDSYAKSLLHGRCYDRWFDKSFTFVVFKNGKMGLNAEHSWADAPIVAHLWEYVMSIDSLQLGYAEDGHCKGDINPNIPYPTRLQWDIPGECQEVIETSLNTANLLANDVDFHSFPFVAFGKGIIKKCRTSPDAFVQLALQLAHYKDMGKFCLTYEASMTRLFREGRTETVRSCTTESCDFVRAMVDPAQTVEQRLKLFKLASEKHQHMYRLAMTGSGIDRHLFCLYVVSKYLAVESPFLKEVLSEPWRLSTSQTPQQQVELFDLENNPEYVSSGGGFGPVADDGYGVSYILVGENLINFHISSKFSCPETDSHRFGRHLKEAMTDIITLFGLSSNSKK

[5] = molecular target: T5, Carnitine O-palmitoyltransferase 1, liver isoform (Rattus norvegicus, UniProt P32198); assay: as §2
T5 sequence (P32198 whole entry): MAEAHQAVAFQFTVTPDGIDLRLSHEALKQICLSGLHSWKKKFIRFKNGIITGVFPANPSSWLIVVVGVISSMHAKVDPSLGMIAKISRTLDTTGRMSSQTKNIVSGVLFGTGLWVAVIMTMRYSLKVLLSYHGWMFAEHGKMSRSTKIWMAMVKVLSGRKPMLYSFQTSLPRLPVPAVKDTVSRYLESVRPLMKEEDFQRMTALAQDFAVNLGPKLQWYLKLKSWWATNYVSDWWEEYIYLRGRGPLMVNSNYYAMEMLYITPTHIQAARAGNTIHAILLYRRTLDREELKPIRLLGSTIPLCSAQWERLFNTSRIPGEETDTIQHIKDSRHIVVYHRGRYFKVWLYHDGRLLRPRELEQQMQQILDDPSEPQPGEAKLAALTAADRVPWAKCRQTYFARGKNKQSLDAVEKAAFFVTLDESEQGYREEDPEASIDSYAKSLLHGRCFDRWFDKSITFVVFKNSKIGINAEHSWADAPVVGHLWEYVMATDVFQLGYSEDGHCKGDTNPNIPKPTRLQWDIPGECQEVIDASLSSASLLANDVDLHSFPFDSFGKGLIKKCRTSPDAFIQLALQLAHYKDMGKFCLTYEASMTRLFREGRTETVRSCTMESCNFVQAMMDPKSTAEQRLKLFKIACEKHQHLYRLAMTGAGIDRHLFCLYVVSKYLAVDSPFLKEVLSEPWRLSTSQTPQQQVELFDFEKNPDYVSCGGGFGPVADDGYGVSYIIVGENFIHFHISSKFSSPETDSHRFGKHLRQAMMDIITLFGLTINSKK

[6] = SUPPLEMENTARY: Lyophilisation Solubility Assay (LYSA); format: physicochemical; settings: read-out: Kinetic_solubility
[7] = SUPPLEMENTARY: Lipophilicity (log D) Determination by high-throughput shake-flask; format: physicochemical; settings: octanol/water
[8] = SUPPLEMENTARY: PAMPA permeability assay; format: physicochemical; settings: read-out: Permeability

SMILES | IC50 [1] [nM] | IC50 [2] [nM] | IC50 [3] [nM] | IC50 [4] [nM] | IC50 [5] [nM] | solubility kinetic [6] [µg/mL] | logD [7] | Papp [8] [×10⁻⁶ cm/s]
CN1CCN(c2cc3c(cc2Cl)CN(C(=O)[C@H]2CCCCN2C(=O)COc2ccccc2)C3)CC1 | > 100000 | 1990 | 2670 | 87.8 | 66.6 | 242 (≈ 487 µM) | 2.38 | 3.16
O=C([C@H]1CCCCN1C(=O)COc1ccccc1)N1Cc2cc(Cl)c(N3CCOCC3)cc2C1 | > 100000 | 388 | 496 | 145 | 121 | 36 (≈ 74.4 µM) | 3.24 | 5.91
CCOc1ccc2c(c1)CN(C(=O)[C@H]1CCCCN1C(=O)COc1ccccc1)C2 | > 100000 | 468 | 539 | 161 | 232 | 30 (≈ 73.4 µM) | 3.23 | 5.52
O=C([C@H]1CCCCN1C(=O)COc1ccccc1)N1Cc2ccc(C3CCOCC3)cc2C1 | > 100000 | 642 | 477 | 63.8 | 64.1 | 14 (≈ 31.2 µM) | 2.8 | 4.45
O=C([C@H]1CCCCN1C(=O)COc1ccccc1)N1Cc2ccc(OCC3CC3)cc2C1 | > 100000 | 701 | 1120 | 259 | 263 | 5 (≈ 11.5 µM) | 2.97 | 2.7
O=C([C@H]1CCCCN1C(=O)COc1ccccc1)N1Cc2ccc(C3CCOC3)cc2C1 (stereo partly drawn) | > 100000 | 473 | 701 | 63.5 | 77.2 | 46 (≈ 106 µM) | 2.72 | 4.71
COc1ccc(Cl)cc1CN1C(=O)OCc2ccc(C(=O)Nc3nc(CC(=O)O)cs3)cc21 | 21900 | > 100000 | > 100000 | 132 | 203 | 50 (≈ 102 µM) | 0.06 | 1.7
O=C(COc1ccccc1)N1CCCC[C@@H]1c1noc(-c2cccc(-n3cc[nH]c3=O)c2)n1 | 83300 | 29700 | 69700 | 59.9 | 458 | 70 (≈ 157 µM) | 2.66 | 7.36
O=C(c1nc([C@H]2CCCCN2C(=O)COc2ccccc2)no1)N1CCC(c2ccncc2)C1 (stereo partly drawn) | > 100000 | 19100 | 57300 | 216 | 1670 | 204 (≈ 442 µM) | 2.12 | 4.27
Cn1ccc(-c2nc([C@H]3CCCCN3C(=O)COc3ccccc3)no2)n1 | > 100000 | > 100000 | > 100000 | 156 | 555 | 94 (≈ 256 µM) | 2.16 | 9.41
O=C(COc1ccccc1)N1CCCC[C@@H]1c1noc(-c2cc[nH]n2)n1 | > 100000 | > 100000 | > 100000 | 221 | 225 | 22 (≈ 62.3 µM) | 2.22 | 5.94
